One molecule from patent US12226386B2, “Compositions and methods for treating biofilms” (The Regents of the University of California, priority 2018, dated 2025) can be followed below.

Assay [1] has as its system bacterial biofilms (MRSA). The assay can be described thus: biofilm assays (sustained inhibition and/or disruption), bacterial. In kind it is cell-based, Staphylococcus aureus. The following applies: in at least one of the two biofilm assays. On the procedure: (§1) Other amino acids in the blood of animals could combat bacterial and fungal biofilm and therefore may be useful in treating these bacterial and fungal infections that would lie on the external surfaces of infected animals such as humans and could also be used to combat these pathogens on instruments and surfaces that need to be treated. Two types of biofilm assays were performed: a sustained inhibition assay and a disruption assay. The sustained inhibition assay assessed the compound's ability to prevent biofilm development throughout all stages of biofilm formation, while the disruption assay assessed the compound's ability to break up an existing mature biofilm.
(§2) For fungal biofilm assays, all solutions were prepared in RPMI 1640 medium. All bacterial biofilm solutions were prepared in Tryptic Soy Broth (TSB), supplemented with 1% glucose (henceforth referred to as TSB-G). All subsequent procedures were performed in a manner that maintained sterility. A solution of each amino acid to be tested was prepared in weight to volume concentrations ranging from 0.1-5.0%. Amino acids were also tested in combinations. Compound solutions were homogenized with gentle agitation in the dark (4° C., 24 hours) before use.
(§3) Bacterial strains were streaked on Blood Agar plates (5% sheep blood in Tryptic Soy Agar) and incubated at 37° C. for 24 hours. A single colony from each strain to be tested was inoculated in a TSB broth and grown for 12 hours, at 37° C. shaking at 225 rpm. For the bacterial biofilm inhibition assays, 1 μL of saturated overnight cell culture was added to either 80 μL of TSB-G, or TSB-G supplemented with the amino acid compound solution to be tested, in a 384-well plate. The cells were allowed to adhere to the plate for 60 minutes at 37° C. without shaking. The media was carefully aspirated and 80 μL of TSB-G, or TSB-G supplemented with the amino acid compound solution was added to the plate. The plate was further incubated for 24 hours at 37° C. without shaking. Media was carefully aspirated and the biofilm was measured by optical density at 600 nm. Eight or twelve replicates were performed for each tested condition and the reported values are normalized to the control (TSB-G media only). For the bacterial biofilm disruption assays, 80 μL of TSB-G was added to the plate, along with 1 μL of overnight cell culture. The cells were allowed to adhere to the plate for 60 minutes at 37° C. with no shaking. The media was carefully aspirated and 80 μL of TSB-G was added to the plate. The plate was further incubated for 24 hours at 37° C. with no shaking. Media was carefully aspirated from the mature biofilm and 80 μL of TSB-G, or TSB-G supplemented with the amino acid to be tested, was gently added to the plate. The plate was further incubated for 24 hours at 37° C. without shaking. Media was aspirated and the biofilm was measured by optical density at 600 nm. Twelve replicates were performed for each tested condition and the reported values are normalized to the control (TSB-G media only).

For assay [2], the system named is S. aureus (MRSA) biofilms. The assay can be described thus: in vitro biofilm disruption assay, bacterial. It is filed as cell-based. The following applies: Staphylococcus aureus, 24 h, disruption, S. aureus, 1% amino acid, p<0.001, read-out: Promote B Biofilm. On the procedure:
In vitro biofilm formation was tested using two assays, sustained inhibition and disruption. Both assays assess biofilm formed on polystyrene plates. The first, tests the effects of amino acid solution on a developing biofilm, while the latter tests the effects of the solution on a pre-formed mature biofilm, both compared to media without supplemented amino acids.
as §1, §2, §3
For disruption assay, 80 μl of TSB-G was added to the plate, along with 1 μl of overnight cell culture. The cells were allowed to adhere to the plate for 60 minutes at 37° C. with no shaking. The media was carefully aspirated and 80 μl of TSB-G was added to the plate. The plate was further incubated for 24 hours at 37° C. with no shaking. Media was carefully aspirated from the mature biofilm and 80 μl of TSB-G, or TSB-G supplemented with the amino acid to be tested, was added drop wise to the plate. The plate was further incubated for 24 hours at 37° C. with no shaking. […]

The test system of assay [3] is fungal biofilms (C. albicans). The assay can be described thus: biofilm assays (sustained inhibition and/or disruption), fungal. It is filed as cell-based, Candida albicans. The note with it: administered individually; in at least one of the two biofilm assays. On the procedure: Other amino acids in the blood of animals could combat bacterial and fungal biofilm and therefore may be useful in treating these bacterial and fungal infections that would lie on the external surfaces of infected animals such as humans and could also be used to combat these pathogens on instruments and surfaces that need to be treated. Two types of biofilm assays were performed: a sustained inhibition assay and a disruption assay. The sustained inhibition assay assessed the compound's ability to prevent biofilm development throughout all stages of biofilm formation, while the disruption assay assessed the compound's ability to break up an existing mature biofilm. For fungal biofilm assays, all solutions were prepared in RPMI 1640 medium. All bacterial biofilm solutions were prepared in Tryptic Soy Broth (TSB), supplemented with 1% glucose (henceforth referred to as TSB-G). All subsequent procedures were performed in a manner that maintained sterility. […] Amino acids were also tested in combinations. Compound solutions were homogenized with gentle agitation in the dark (4° C., 24 hours) before use. Fungal strains were streaked on Yeast Peptone Dextrose (YPD) agar plates and incubated at 30° C. for 48 hours. A single colony from each strain to be tested was inoculated into YPD broth and grown for 12 hours, at 30° C., shaking at 225 rpm. For the fungal biofilm inhibition assay, 1 μl of saturated overnight cell culture was added to either 80 μL of RPMI-1640 or RPMI-1640 supplemented with the amino acid compound solution to be tested, in a 384-well plate. The cells were allowed to adhere to the plate for 90 minutes at 37° C. shaking at 350 rpm. Loosely bound cells were washed once with phosphate buffered saline (PBS) and 80 μl of RPMI-1640, or RPMI-1640 supplemented with the amino acid compound solution was added to the plate. The plate was further incubated for 24 hours at 37° C. shaking at 350 rpm. Media was carefully aspirated and the biofilm was measured by optical density at 600 nm. Twelve replicates were performed for each tested condition and the reported values are normalized to the control (RPMI-1640 media only). For the fungal biofilm disruption assays, 80 μL of RPMI-1640 was added to the plate, along with 1 μL of overnight cell culture. The cells were allowed to adhere to the plate for 90 minutes at 37° C. shaking at 350 rpm. Loosely bound cells were washed once with PBS and 80 μL of RPMI-1640 was added to the plate. The plate was further incubated for 24 hours at 37° C. shaking at 350 rpm. Media was carefully aspirated from the mature biofilm and 80 μL of RPMI-1640, or RPMI-1640 supplemented with the amino acid compound solution to be tested, was gently added to the plate. The plate was further incubated for 24 hours at 37° C. shaking at 350 rpm. Media was carefully aspirated and the biofilm was measured by optical density at 600 nm. Twelve replicates were performed for each tested condition and the reported values are normalized to the control (RPMI-1640 media only).

The next assay deals with C. albicans biofilms. The assay can be described thus: in vitro biofilm disruption assay, fungal. It is filed as cell-based, Candida albicans. The following applies: 1% amino acid, p<0.001. The method, then: Two types of biofilm assays were performed: a sustained inhibition assay and a disruption assay.
as §2
Fungal strains were streaked on Yeast Peptone Dextrose (YPD) agar plates and incubated at 30° C. for 48 hours. A single colony from each strain to be tested was inoculated into YPD broth and grown for 12 hours, at 30° C., shaking at 225 rpm. For the fungal biofilm inhibition assay, 1 μl of saturated overnight cell culture was added to either 80 μL of RPMI-1640 or RPMI-1640 supplemented with the amino acid compound solution to be tested, in a 384-well plate. […] Media was carefully aspirated and the biofilm was measured by optical density at 600 nm. Twelve replicates were performed for each tested condition and the reported values are normalized to the control (RPMI-1640 media only). For the fungal biofilm disruption assays, 80 μL of RPMI-1640 was added to the plate, along with 1 μL of overnight cell culture. […] Loosely bound cells were washed once with PBS and 80 μL of RPMI-1640 was added to the plate. […] Media was carefully aspirated from the mature biofilm and 80 μL of RPMI-1640, or RPMI-1640 supplemented with the amino acid compound solution to be tested, was gently added to the plate. […] Media was carefully aspirated and the biofilm was measured by optical density at 600 nm. Twelve replicates were performed for each tested condition and the reported values are normalized to the control (RPMI-1640 media only).
The cells were allowed to adhere to the plate for 90 minutes at 37° C. with shaking (350 rpm). […] The plate was further incubated for 24 hours at 37° C. with shaking (350 rpm). […] The plate was further incubated for 24 hours at 37° C. with shaking (350 rpm). Media was carefully aspirated and the biofilm was measured by optical density at 600 nm.

On to `O=C(O)[C@@H]1CCCN1` [Proline, L-proline], for which the “effect on bacterial biofilm growth” value in assay [1] is “support (improve) bacterial biofilm growth”. Moreover, the activation at 1 % in assay [2] was in the range of 10 to 30%. Besides, the “anti-biofilm properties against fungal biofilms” value in assay [3] is recorded as “reduction by less than two-fold”. The “Reduce F Biofilm” value in the assay on C. albicans biofilms is “● (a single dot [i.e. ●] signifies minor effect (from about 10 to about 30% change))”.
